The values that follow come from ChEMBL document CHEMBL3286299, “Synthesis and in vitro evaluation of 4-trichloromethylpyrrolo[1,2-a]quinoxalines as new antiplasmodial agents” (Eur J Med Chem, 2014).

A value given as a limit tells only on which side of the number the result lay.

Data set [1] can be described thus: Selectivity index, ratio of CC50 for human HepG2 cells to IC50 for Plasmodium falciparum W2. The format is functional.
Data set [2] is described as follows: Cytotoxicity against human HepG2 cells after 72 hrs by MTT assay. The format is cell-based. Background: Tetrazolium assays rely on reduction of a dye to a coloured formazan, in cell work by metabolically active cells.
The nature of data set [3]: Selectivity index, ratio of CC50 for human HepG2 cells to IC50 for chloroquine-, pyrimethamine- and proguanil-resistant Plasmodium falciparum K1 infected in human erythrocytes. The format is functional.
The subject of a further data set is Plasmodium falciparum. In words: Antiplasmodial activity against chloroquine-, pyrimethamine- and proguanil-resistant Plasmodium falciparum K1 infected in human erythrocytes after 72 hrs by SYBR Green I fluorescence-based method. The format is functional, organism-based. The conditions noted are these: K1, 72 h.

For the compound `ClC(Cl)(Cl)c1nc(-c2ccccc2)c2ccccc2n1`, the “Ratio CC50/IC50” value in data set [1] is on record as more than 15.6. Moreover, the CC50 at 72 h in data set [2] was more than 125 µM.

As for `ClC(Cl)(Cl)c1nccc2ccccc12`, the “Ratio CC50/IC50” value in data set [3] amounted to 22.5. In data set [2], this compound registered a CC50 at 72 h of 180 µM. In the data set on Plasmodium falciparum, this compound registered an IC50 of 8 µM.

In the case of `ClC(Cl)(Cl)c1ncnc2ccccc12`, in data set [2], the CC50 at 72 h was more than 500 µM. The compound further yielded an IC50 in the data set with Plasmodium falciparum of more than 50 µM.

In the case of `ClC(Cl)(Cl)c1ncc2ccccc2n1`, the “Ratio CC50/IC50” value in data set [3] was 3.5. This compound also registered a cytotoxic concentration (CC50) at 72 h in data set [2] of 61 µM. In addition, the IC50 with Plasmodium falciparum was 17.6 µM.

In the case of `Cc1ncc2ccccc2n1`, the “Ratio CC50/IC50” value in data set [3] was less than 7. Besides, in data set [2], it took 350 µM to reach half-maximal cytotoxicity (CC50 at 72 h). The 50% inhibitory concentration (IC50) with Plasmodium falciparum is more than 50 µM.

Consider `ClC(Cl)(Cl)c1cnc2ccccc2n1`, for which the “Ratio CC50/IC50” value in data set [3] was found to be 2.1. This compound had a cytotoxic concentration (CC50) at 72 h in data set [2] of 3.1 µM. This compound yielded an IC50 with Plasmodium falciparum of 1.5 µM.

In data set [2], `Cc1cnc2ccccc2n1` had a CC50 at 72 h of more than 500 µM. In addition, in the data set with Plasmodium falciparum, the IC50 is more than 50 µM.

For `ClC(Cl)c1cnc2ccccc2n1`, the “Ratio CC50/IC50” value in data set [3] is reported as 1.5. Besides, the 50% cytotoxic concentration (CC50) at 72 h in data set [2] worked out at 19.3 µM. The compound further came in with an IC50 in the data set on Plasmodium falciparum of 12.8 µM.

In data set [2], `FC(F)(F)c1cnc2ccccc2n1` registered a CC50 at 72 h of more than 500 µM. Besides, the IC50 in the data set on Plasmodium falciparum was more than 50 µM.

For the compound `ClC(Cl)(Cl)c1nc2ccccc2nc1-c1ccccc1`, in data set [3], the “Ratio CC50/IC50” value was found to be 17.5. The CC50 at 72 h in data set [2] came to 3.5 µM. Besides, the midpoint of inhibition in the data set with Plasmodium falciparum, the IC50, lay at 0.2 µM.

Consider `ClC(Cl)(Cl)c1nc2ccccc2n2cccc12`, for which, in data set [3], the “Ratio CC50/IC50” value worked out at 27.5. In addition, the cytotoxic concentration (CC50) at 72 h in data set [2] is 41.2 µM. The same compound registered an IC50 in the data set with Plasmodium falciparum of 1.5 µM.

Consider `Fc1ccc2c(c1)nc(C(Cl)(Cl)Cl)c1cccn12`, for which the “Ratio CC50/IC50” value in data set [3] is more than 8.8. For the same compound, in data set [2], the CC50 at 72 h was more than 15 µM. The same compound registered an IC50 in the data set with Plasmodium falciparum of 1.7 µM.

For `Clc1ccc2c(c1)nc(C(Cl)(Cl)Cl)c1cccn12`, the “Ratio CC50/IC50” value in data set [3] stood at 6.1. This compound also gave a 50% cytotoxic concentration (CC50) at 72 h in data set [2] of 9.8 µM. In the data set on Plasmodium falciparum, this compound came in with an IC50 of 1.6 µM.

Take `ClC(Cl)(Cl)c1nc2cc(I)ccc2n2cccc12`: the “Ratio CC50/IC50” value in data set [3] stood at 5.5. In addition, in data set [2], the CC50 at 72 h was 6.6 µM. Moreover, half-maximal inhibition in the data set with Plasmodium falciparum (IC50) required 1.2 µM.

In the case of `Cc1ccc2c(c1)nc(C(Cl)(Cl)Cl)c1cccn12`, in data set [3], the “Ratio CC50/IC50” value was 22.1. This compound also returned a cytotoxic concentration (CC50) at 72 h in data set [2] of 53 µM. The 50% inhibitory concentration (IC50) in the data set with Plasmodium falciparum is 2.4 µM.

As to `COc1ccc2c(c1)nc(C(Cl)(Cl)Cl)c1cccn12`, the “Ratio CC50/IC50” value in data set [3] turned out to be 8.3. For the same compound, in data set [2], the CC50 at 72 h turned out to be 35 µM. In addition, in the data set on Plasmodium falciparum, the half-inhibitory concentration (IC50) turned out to be 4.2 µM.

For the compound `N#Cc1ccc2c(c1)nc(C(Cl)(Cl)Cl)c1cccn12`, the “Ratio CC50/IC50” value in data set [3] was 11.3. Moreover, in data set [2], the CC50 at 72 h turned out to be 17 µM. In the data set on Plasmodium falciparum, half-maximal inhibition (IC50) required 1.5 µM.

Take `O=C(O)c1ccc2c(c1)nc(C(Cl)(Cl)Cl)c1cccn12`: the “Ratio CC50/IC50” value in data set [3] was less than 10.6. Besides, in data set [2], the 50% cytotoxic concentration (CC50) at 72 h came out at 106 µM. The same compound yielded an IC50 in the data set on Plasmodium falciparum of 22 µM.

On to `N/C(=N/O)c1ccc2c(c1)nc(C(Cl)(Cl)Cl)c1cccn12`, for which the “Ratio CC50/IC50” value in data set [3] is given as more than 8.6. The compound further registered a CC50 at 72 h in data set [2] of more than 15 µM. This compound registered an IC50 in the data set on Plasmodium falciparum of 1.75 µM.

With `Cc1nc2ccccc2n2cccc12`, the “Ratio CC50/IC50” value in data set [3] is recorded as less than 2.4. In data set [2], this compound showed a cytotoxic concentration (CC50) at 72 h of 120 µM. Further, in the data set on Plasmodium falciparum, the concentration for half-maximal inhibition (IC50) is more than 50 µM.

For the compound `Cc1ccc2c(c1)nc(C)c1cccn12`, in data set [3], the “Ratio CC50/IC50” value is on record as less than 4.7. The CC50 at 72 h in data set [2] came to 57 µM. In the data set with Plasmodium falciparum, this compound returned an IC50 of more than 50 µM.

In the case of `Cc1nc2cc(C#N)ccc2n2cccc12`, the CC50 at 72 h in data set [2] was more than 31.5 µM. This compound registered an IC50 with Plasmodium falciparum of more than 50 µM.

Regarding `FC(F)(F)c1nc2ccccc2n2cccc12`, in data set [3], the “Ratio CC50/IC50” value was less than 3.2. The midpoint of cytotoxicity in data set [2], the CC50 at 72 h, lay at 160 µM. This compound also showed an IC50 in the data set on Plasmodium falciparum of more than 50 µM.

Consider `Cc1nccc2ccccc12`, for which, in data set [3], the “Ratio CC50/IC50” value is less than 3.6. In addition, in data set [2], the CC50 at 72 h worked out at 179 µM. In the data set with Plasmodium falciparum, the IC50 is more than 50 µM.

In the case of `C[C@H]1c2cccc(O)c2C(=O)C2=C(O)[C@]3(O)C(=O)C(C(N)=O)=C(O)[C@@H](N(C)C)[C@@H]3[C@@H](O)[C@@H]21.O` [DOXYCYCLINE], the “Ratio CC50/IC50” value in data set [3] is 3.3. In the data set on Plasmodium falciparum, this compound registered an IC50 of 6 µM.

As to `Cc1ccc2ccccc2n1` [QUINALDINE], in data set [2], the half-maximal cytotoxic concentration (CC50) at 72 h was more than 500 µM. Also, the IC50 with Plasmodium falciparum is more than 50 µM.

Turning to `c1ccc2nccnc2c1` [QUINOXALINE], the CC50 at 72 h in data set [2] was more than 500 µM. This compound also had a 50% inhibitory concentration (IC50) in the data set on Plasmodium falciparum of more than 50 µM.

The CC50 is the concentration giving 50% cytotoxicity. Lower therefore signals greater toxicity to the cells. In general, IC50 refers to the concentration at which inhibition is half-maximal. High values mean a need for much substance, low ones inhibition by little substance.
